Experimental data as given in the supplement of paper PMC5908809.

Columns and labels:
[1] = system: normal primary NK cells, pool 3 (3 donors) (IL-2 2.5 ng/mL); test: percent inhibition of viability; higher = more inhibition; settings: 72 h
YT (IL-2 2.5 ng/mL) [2] = test: as above; settings: 72 h
NK-YS (IL-2 2.5 ng/mL) [3] = test: as above; settings: 72 h
KHYG-1 (IL-2 2.5 ng/mL) [4] = test: as above; settings: 72 h
[5] = system: normal primary NK cells, pool 1 (3 donors), resting (IL-2 0 ng/mL); test: as above; settings: 72 h
KAI3 (IL-2 2.5 ng/mL) [6] = test: as above; settings: 72 h
NK-92 (IL-2 2.5 ng/mL) [7] = test: as above; settings: 72 h
NKL (IL-2 2.5 ng/mL) [8] = test: as above; settings: 72 h
[9] = system: normal primary NK cells, pool 2 (3 donors) (IL-2 2.5 ng/mL); test: as above; settings: 72 h
DERL-7 (IL-2 2.5 ng/mL) [10] = test: as above; settings: 72 h
SNK-6 (IL-2 2.5 ng/mL) [11] = test: as above; settings: 72 h
[12] = system: normal primary NK cells, pool 1 (3 donors) (IL-2 2.5 ng/mL); test: as above; settings: 72 h
IMC-1 (IL-2 20 ng/mL) [13] = test: as above; settings: 72 h
[14] = system: normal NK cells expanded with K562-aAPC; test: drug sensitivity score (DSS) (DSS units); higher = more sensitive; extreme values may be limits of the assay; settings: 72 h; IL-2 2.5 ng/mL
Procedure: (§1)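 Drug sensitivity and resistance testing on K562-aAPC-expanded normal NK cells: 5 concentrations (10-fold steps over a 10,000-fold range), 72 h at 37 °C, viability by CellTiter-Glo normalised to DMSO and benzethonium chloride controls; DSS from the fitted curve.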

[15] = system: normal primary NK cells, pool 3 (3 donors) (IL-2 2.5 ng/mL); test: as above; settings: 72 h
YT (IL-2 2.5 ng/mL) [16] = test: as above; settings: 72 h
NK-YS (IL-2 2.5 ng/mL) [17] = test: as above; settings: 72 h
KHYG-1 (IL-2 2.5 ng/mL) [18] = test: as above; settings: 72 h
[19] = system: normal primary NK cells, pool 1 (3 donors), resting (IL-2 0 ng/mL); test: as above; settings: 72 h
KAI3 (IL-2 2.5 ng/mL) [20] = test: as above; settings: 72 h
NK-92 (IL-2 2.5 ng/mL) [21] = test: as above; settings: 72 h
NKL (IL-2 2.5 ng/mL) [22] = test: as above; settings: 72 h
[23] = system: normal primary NK cells, pool 2 (3 donors) (IL-2 2.5 ng/mL); test: as above; settings: 72 h
DERL-7 (IL-2 2.5 ng/mL) [24] = test: as above; settings: 72 h
SNK-6 (IL-2 2.5 ng/mL) [25] = test: as above; settings: 72 h
[26] = system: normal primary NK cells, pool 1 (3 donors) (IL-2 2.5 ng/mL); test: as above; settings: 72 h
IMC-1 (IL-2 20 ng/mL) [27] = test: as above; settings: 72 h
[28] = system: normal NK cells expanded with K562-aAPC; test: percent inhibition of viability; higher = more inhibition; settings: 72 h, IL-2 2.5 ng/mL
Procedure: as §1

COc1cc2nccc(Oc3ccc(NC(=O)Nc4cc(C)on4)c(Cl)c3)c2cc1OC [Tivozanib] (max concentration tested 10000 nM)
percent inhibition of viability [%]
Settings | 1 nM | 10 nM | 100 nM | 1000 nM | 10000 nM
DERL-7 (IL-2 2.5 ng/mL) [10] | 6.25 | -4.07 | 8.65 | 3.71 | 74.2
IMC-1 (IL-2 20 ng/mL) [13] | 0.39 | 1.69 | -1.08 | 4.81 | 20.3
KAI3 (IL-2 2.5 ng/mL) [6] | 0.42 | 12.7 | 7.97 | 8.25 | 33.2
KHYG-1 (IL-2 2.5 ng/mL) [4] | 2.06 | 3.29 | 1.48 | 11.4 | 50.2
NK-92 (IL-2 2.5 ng/mL) [7] | 17.7 | 7.65 | 22.3 | 42.5 | 71
NK-YS (IL-2 2.5 ng/mL) [3] | -1.25 | 1.72 | 3.3 | 12.8 | 64.8
NKL (IL-2 2.5 ng/mL) [8] | -0.1 | -11 | -5.13 | 8.13 | 47.4
SNK-6 (IL-2 2.5 ng/mL) [11] | 0.59 | 1.54 | -8.58 | 41.8 | 65.3
YT (IL-2 2.5 ng/mL) [2] | 8.31 | 9.93 | 8.18 | 19.9 | 61.6
[1] | 8.53 | 3.31 | 5.07 | 0.75 | 3.16
[5] | 5.37 | -0.35 | 5.84 | 18.5 | 67.5
[9] | 5.79 | 7.02 | 3.11 | -2.45 | 29.2
[12] | -3.27 | -5.56 | -13 | 7.21 | 36.9
[28] | -1.14 | -3.52 | -0.12 | 3.67 | -4.22

Settings | drug sensitivity score
DERL-7 (IL-2 2.5 ng/mL) [24] | 4.63
IMC-1 (IL-2 20 ng/mL) [27] | 1.23
KAI3 (IL-2 2.5 ng/mL) [20] | 2.57
KHYG-1 (IL-2 2.5 ng/mL) [18] | 4.48
NK-92 (IL-2 2.5 ng/mL) [21] | 11.5
NK-YS (IL-2 2.5 ng/mL) [17] | 5.65
NKL (IL-2 2.5 ng/mL) [22] | 3.83
SNK-6 (IL-2 2.5 ng/mL) [25] | 8.55
YT (IL-2 2.5 ng/mL) [16] | 5.67
[14] | 0
[15] | 0
[19] | 6.37
[23] | 1.08
[26] | 2.94

C[C@@H]1CCN(C(=O)CC#N)C[C@@H]1N(C)c1ncnc2[nH]ccc12 [Tofacitinib] (max concentration tested 5000 nM)
percent inhibition of viability [%]
Settings | 0.5 nM | 5 nM | 50 nM | 500 nM | 5000 nM
DERL-7 (IL-2 2.5 ng/mL) [10] | 4.68 | 5.82 | 37.9 | 76.5 | 100
IMC-1 (IL-2 20 ng/mL) [13] | -6.11 | -7.94 | -16.8 | 34.5 | 92.1
KAI3 (IL-2 2.5 ng/mL) [6] | -5.21 | 10.5 | 45.3 | 82.7 | 85.5
KHYG-1 (IL-2 2.5 ng/mL) [4] | -4.2 | 2.4 | 59.4 | 100 | 98.6
NK-92 (IL-2 2.5 ng/mL) [7] | -2.4 | -2.12 | 17.6 | 66.9 | 80.8
NK-YS (IL-2 2.5 ng/mL) [3] | -1.06 | 4.19 | 22 | 56.2 | 67.5
NKL (IL-2 2.5 ng/mL) [8] | -18.4 | 5 | 56.6 | 78.2 | 86.8
SNK-6 (IL-2 2.5 ng/mL) [11] | -3.6 | 10 | 22.4 | 80.2 | 77.1
YT (IL-2 2.5 ng/mL) [2] | -1.31 | -0.82 | 0.63 | 46.5 | 64.1
[1] | -10.3 | -4.27 | 6.35 | 48.6 | 60.7
[5] | -2.2 | -5.26 | -18 | 7.52 | -1.29
[9] | -14 | -8.22 | 19.6 | 60.2 | 67
[12] | -7 | -4.5 | 19.9 | 68.1 | 69.8
[28] | 0.56 | -0.5 | 34.7 | 89.7 | 96.1

Settings | drug sensitivity score
DERL-7 (IL-2 2.5 ng/mL) [24] | 19.1
IMC-1 (IL-2 20 ng/mL) [27] | 9.8
KAI3 (IL-2 2.5 ng/mL) [20] | 20.8
KHYG-1 (IL-2 2.5 ng/mL) [18] | 25.1
NK-92 (IL-2 2.5 ng/mL) [21] | 14.5
NK-YS (IL-2 2.5 ng/mL) [17] | 13
NKL (IL-2 2.5 ng/mL) [22] | 22.6
SNK-6 (IL-2 2.5 ng/mL) [25] | 17.6
YT (IL-2 2.5 ng/mL) [16] | 8.99
[14] | 20.7
[15] | 9.81
[19] | 0
[23] | 13.7
[26] | 15.6

CN(C)CCOc1ccc(/C(=C(/CCCl)c2ccccc2)c2ccccc2)cc1 [Toremifene] (max concentration tested 10000 nM)
percent inhibition of viability [%]
Settings | 1 nM | 10 nM | 100 nM | 1000 nM | 10000 nM
DERL-7 (IL-2 2.5 ng/mL) [10] | 1.82 | 1.64 | 5.42 | 24.2 | 53.5
IMC-1 (IL-2 20 ng/mL) [13] | -0.16 | 2.16 | -3.63 | 1.2 | 10.6
KAI3 (IL-2 2.5 ng/mL) [6] | 8.55 | 1.95 | 5.19 | 8.64 | 60.7
KHYG-1 (IL-2 2.5 ng/mL) [4] | -7.33 | 4.52 | -9.46 | 6.72 | 42
NK-92 (IL-2 2.5 ng/mL) [7] | -4.85 | -1.12 | 2.18 | 6.43 | 54.2
NK-YS (IL-2 2.5 ng/mL) [3] | 1.32 | -4.28 | -2.7 | -0.4 | 25.6
NKL (IL-2 2.5 ng/mL) [8] | 7.08 | 8.77 | -8.23 | 8.2 | 32.7
SNK-6 (IL-2 2.5 ng/mL) [11] | 13 | 30.5 | -2.4 | 28.2 | 29
YT (IL-2 2.5 ng/mL) [2] | -5.23 | 2.7 | -3.67 | 5.54 | 33
[1] | -2.58 | -5.78 | 0.52 | 5.83 | 23.4
[5] | -10.2 | -1.02 | 4.14 | 7.87 | 82.2
[9] | -4.96 | -0.07 | -1.79 | 3.55 | 49
[12] | -5.3 | -17.6 | -3 | -8.46 | 64.3
[28] | -7.54 | -7.98 | -6.66 | -5.37 | 22.4

Settings | drug sensitivity score
DERL-7 (IL-2 2.5 ng/mL) [24] | 5.52
IMC-1 (IL-2 20 ng/mL) [27] | 0.01
KAI3 (IL-2 2.5 ng/mL) [20] | 4.76
KHYG-1 (IL-2 2.5 ng/mL) [18] | 3.24
NK-92 (IL-2 2.5 ng/mL) [21] | 3.98
NK-YS (IL-2 2.5 ng/mL) [17] | 0.96
NKL (IL-2 2.5 ng/mL) [22] | 2.74
SNK-6 (IL-2 2.5 ng/mL) [25] | 6.85
YT (IL-2 2.5 ng/mL) [16] | 2.42
[14] | 0.54
[15] | 1.64
[19] | 5.83
[23] | 3.11
[26] | 2.96
